Results reported in US6914045B2, “Glycopeptide antibiotics” (Wyeth Holdings Corporation, priority 2001, dated 2005).
≈ marks a conversion by molar mass, not a printed value.

Legend:
Test in all cases: in vitro antibacterial evaluation, MIC by broth dilution
Format in all cases: cell-based
Staphylococcus sp. = conditions: broth dilution, 18 hours at 35° C.
Description: (§1) Methods for in vitro Antibacterial Evaluation (Table 1)
(§2) The minimum inhibitory concentration (MIC), the lowest concentration of the antibiotic which inhibits growth of the test organism, is determined by the broth dilution method using Muller-Hinton II […] (Baltimore Biological Laboratories) following the recommendations of the National Committee for Clinical Laboratory Standards [Methods for dilution antimicrobial susceptibility tests for bacteria that grow aerobically, approved standard M7-A2, National Committee for Clinical Laboratory Standards, Villanova, Pa.].
(§3) An inoculum level of 5×10^5 CFU/mL, and a range of antibiotic concentrations (64-0.06 μg/mL) is used. […] The test organisms include a spectrum of Gram-positive bacteria comprised of Staphylococcus sp., Streptococcus sp. and Enterococcus sp. These organisms include recent clinical isolates that are resistant to methicillin, penicillin and/or vancomycin.

Enterococcus sp. = conditions: broth dilution, 18 hours at 35° C.
Description: as §1, §2, §3

Streptococcus sp. = conditions: broth dilution, 18 hours at 35° C.
Description: as §1, §2, §3

Escherichia coli = conditions: 18 hours at 35° C.

## N=C1NCC(C(O)C2NC(=O)C(CC3CCC(OC4OC(CO)C(OC5OC6COC7(OC6C(O)C5O)C5CC6CC(C5)CC7C6)C(O)C4O)CC3)NC(=O)C(CC3CCCCC3)NC(=O)CNC(=O)C(CO)NC(=O)C(C(O)C3CNC(=N)N3C3OC(CO)C(O)C(O)C3O)NC2=O)N1 (single isomer, unassigned) [Example 222]
Staphylococcus sp.; strain ATCC 29213
  MIC Staphylococcus aureus (ATCC 29213): >64 mg/L
Staphylococcus sp.; strain GC 1131
  MIC Staphylococcus aureus (GC 1131): >64 mg/L
Staphylococcus sp.; strain GC 3051
  MIC Staphylococcus aureus (GC 3051): >64 mg/L
Staphylococcus sp.; strain GC 3053
  MIC Staphylococcus aureus (GC 3053): >64 mg/L
Staphylococcus sp.; strain GC 4541
  MIC Staphylococcus aureus (GC 4541): >64 mg/L
Staphylococcus sp.; strain GC 4542
  MIC Staphylococcus aureus (GC 4542): >64 mg/L
Staphylococcus sp.; strain GC 4543
  MIC Staphylococcus aureus-SMITH (GC 4543): >64 mg/L
Staphylococcus sp.; strain GC 4544
  MIC Staphylococcus aureus (GC 4544): >64 mg/L
Staphylococcus sp.; strain GC 4545
  MIC Staphylococcus aureus (GC 4545): >64 mg/L
Staphylococcus sp.; strain GC 4546
  MIC Staphylococcus haemolyticus (GC 4546): >64 mg/L
Staphylococcus sp.; strain GC 4547
  MIC Coagulase Negative Staphylococcus (GC 4547): >64 mg/L
Staphylococcus sp.; strain GC 4548
  MIC Coagulase Negative Staphylococcus (GC 4548): >64 mg/L
Staphylococcus sp.; strain GC 4549
  MIC Coagulase Negative Staphylococcus (GC 4549): >64 mg/L
Staphylococcus sp.; strain GC 4551
  MIC Coagulase Negative Staphylococcus (GC 4551): >64 mg/L
Enterococcus sp.
  MIC Enterococcus avium (GC 4558): 64 mg/L (≈ 44.9 µM)
  MIC Enterococcus faecalis (ATCC 29212): >64 mg/L
  MIC Enterococcus faecalis (GC 2242): >64 mg/L
  MIC Enterococcus faecalis (GC 2691): >64 mg/L
  MIC Enterococcus faecalis (GC 3059): >64 mg/L
  MIC Enterococcus faecalis (GC 4552): >64 mg/L
  MIC Enterococcus faecalis (GC 4553): >64 mg/L
  MIC Enterococcus faecalis (GC 4554): >64 mg/L
  MIC Enterococcus faecalis (GC 6189): >64 mg/L
  MIC Enterococcus faecium (GC 2243): >64 mg/L
  MIC Enterococcus faecium (GC 4556): >64 mg/L
  MIC Enterococcus faecium (GC 4557): 64 mg/L (≈ 44.9 µM)
Enterococcus sp.; inoculum 5×10^5 CFU/mL, strain ATCC 29212
  MIC Enterococcus faecalis (ATCC 29212): >64 mg/L
Enterococcus sp.; inoculum 5×10^5 CFU/mL, strain GC 2242
  MIC Enterococcus faecalis (GC 2242): >64 mg/L
Enterococcus sp.; inoculum 5×10^5 CFU/mL, strain GC 2243
  MIC Enterococcus faecium (GC 2243): >64 mg/L
Enterococcus sp.; inoculum 5×10^5 CFU/mL, strain GC 2691
  MIC Enterococcus faecalis (GC 2691): >64 mg/L
Enterococcus sp.; inoculum 5×10^5 CFU/mL, strain GC 3059
  MIC Enterococcus faecalis (GC 3059): >64 mg/L
Enterococcus sp.; inoculum 5×10^5 CFU/mL, strain GC 4552
  MIC Enterococcus faecalis (GC 4552): >64 mg/L
Enterococcus sp.; inoculum 5×10^5 CFU/mL, strain GC 4553
  MIC Enterococcus faecalis (GC 4553): >64 mg/L
Enterococcus sp.; inoculum 5×10^5 CFU/mL, strain GC 4554
  MIC Enterococcus faecalis (GC 4554): >64 mg/L
Enterococcus sp.; inoculum 5×10^5 CFU/mL, strain GC 4556
  MIC Enterococcus faecium (GC 4556): >64 mg/L
Enterococcus sp.; inoculum 5×10^5 CFU/mL, strain GC 4557
  MIC Enterococcus faecium (GC 4557): 64 mg/L (≈ 44.9 µM)
Enterococcus sp.; inoculum 5×10^5 CFU/mL, strain GC 4558
  MIC Enterococcus avium (GC 4558): 64 mg/L (≈ 44.9 µM)
Enterococcus sp.; inoculum 5×10^5 CFU/mL, strain GC 6189
  MIC Enterococcus faecalis (GC 6189): >64 mg/L
Streptococcus sp.
  MIC Streptococcus agalactiae (GC 4564): >64 mg/L
  MIC Streptococcus pneumoniae (ATCC 6301): 64 mg/L (≈ 44.9 µM)
  MIC Streptococcus pneumoniae (GC 1894): 32 mg/L (≈ 22.4 µM)
  MIC Streptococcus pneumoniae (GC 4565): 64 mg/L (≈ 44.9 µM)
  MIC Streptococcus pyogenes (GC 4563): 64 mg/L (≈ 44.9 µM)
Streptococcus sp.; inoculum 5×10^5 CFU/mL, strain ATCC 6301
  MIC Streptococcus pneumoniae (ATCC 6301): 64 mg/L (≈ 44.9 µM)
Streptococcus sp.; inoculum 5×10^5 CFU/mL, strain GC 1894
  MIC Streptococcus pneumoniae (GC 1894): 32 mg/L (≈ 22.4 µM)
Streptococcus sp.; inoculum 5×10^5 CFU/mL, strain GC 4563
  MIC Streptococcus pyogenes (GC 4563): 64 mg/L (≈ 44.9 µM)
Streptococcus sp.; inoculum 5×10^5 CFU/mL, strain GC 4564
  MIC Streptococcus agalactiae (GC 4564): >64 mg/L
Streptococcus sp.; inoculum 5×10^5 CFU/mL, strain GC 4565
  MIC Streptococcus pneumoniae (GC 4565): 64 mg/L (≈ 44.9 µM)
Escherichia coli
  MIC Escherichia coli (ATCC 25922): >64 mg/L
  MIC Escherichia coli (GC 4559): >64 mg/L
  MIC Escherichia coli (GC 4560): 64 mg/L (≈ 44.9 µM)
